Measurements taken from ChEMBL document CHEMBL4765246, “Design, synthesis and biological evaluation of quinoxaline compounds as anti-HIV agents targeting reverse transcriptase enzyme” (Eur J Med Chem, 2020).

Tests used:
[1] = tested on: Human immunodeficiency virus type 1 BH10; experiment: (§1) Inhibition of wild type recombinant HIV-1 subtype B BH10 p66/p51 reverse transcriptase heterodimer expressed in Escherichia coli BL21 (DE3) assessed as inhibition of dTTP incorporation on poly(rA)-oligo(dT) template primer duplex at 10 uM preincubated with enzyme for 2 mins followed by incubation with poly(A)-oligo(dT) templates for 2 hrs by flourescence assay method; settings: time 122.0 min
[2] = tested on: Human immunodeficiency virus type 1 BH10; experiment: as §1, with “at 100” for “at 10”; settings: time 122.0 min
[3] = tested on: Human immunodeficiency virus type 1 BH10; experiment: as §1, with “of” for “of wild type”, “heterodimer K103N mutant” for “heterodimer expressed in Escherichia coli BL21 (DE3)”, “at 50” for “at 10”; settings: time 122.0 min
[4] = as §1, with “duplex” for “duplex at 10 uM”; design: species or system Human immunodeficiency virus type 1 BH10
[5] = tested on: Human immunodeficiency virus type 1 BH10; experiment: Selectivity for inhibition of wild type recombinant HIV-1 subtype B BH10 p66/p51 reverse transcriptase heterodimer expressed in Escherichia coli BL21 (DE3) at 50 uM over inhibition of recombinant HIV-1 subtype B BH10 p66/p51 reverse transcriptase heterodimer K103N mutant at 50 uM by fluorescence based assay
[6] = Anti-HIV-1 activity against HTLV-3B infected in human MT2 cells assessed as reduction in syncytium formation by measuring reduction in p24 antigen production measured after 4 days by ELISA method; type: functional, cell-based; settings: Human immunodeficiency virus 1, HTLV-3B, MT2, 96 h
[7] = Cytotoxicity against human MT2 cells assessed as reduction in cell viability measured after 4 days by Trypan blue assay; type: cell-based; settings: time 4 day
[8] = Selectivity index, ratio of CC50 for human MT2 cells to EC50 for anti-HIV-1 activity against HTLV-3B infected in human MT2 cells; type: toxicity, cell-based; settings: read-out: Ratio CC50/EC50

Compound	inhibition [1]	inhibition [2]	inhibition [3]	IC50 [4]	Selectivity ratio [5]	EC50 [6]	CC50 at 96 h [7]	selectivity ratio [8]
COC(=O)CCc1nc2ccccc2nc1O	8%	23%						
O=C1CN(C(=O)c2ccccc2)c2ccccc2N1	14%	33%						
Cc1ccnc2c1NC(=O)c1cccnc1N2C1CC1 [NEVIRAPINE]	91%	98%	50%	0.13 µM	2	0.0067 µM	96.2 µM	14400
CC(C)[C@H]1C(=O)Nc2ccccc2N1C(=O)CCl	5%	12%						
CC(C)Cc1nc2ccccc2[nH]c1=O	15%	73%	5%	23 µM	16	> 10 µM	134 µM	
CC(C)c1nc2ccccc2[nH]c1=O	12%	17%						
CC(C)C[C@H]1C(=O)Nc2ccccc2N1C(=O)CCCl	10%	20%						
CC(C)OC(=O)CCc1nc2ccccc2nc1O	21%	25%						
CC(C)OC(=O)N1CC(=O)Nc2ccccc21	20%	19%						
CCC(=O)N1c2ccccc2NC(=O)[C@@H]1C	7%	23%						
Oc1nc2ccccc2nc1Cc1ccccc1	10%	26%						
CCOC(=O)CCc1nc2ccccc2nc1O	15%	12%						
O=C(O)CCc1nc2ccccc2[nH]c1=O	20%	15%						
CC(C)[C@H]1C(=O)Nc2ccccc2N1C(=O)CCCl	7%	7%						
O=C1CN(C(=O)CCl)c2ccccc2N1	24%	32%						
O=C1CN(S(=O)(=O)c2ccccc2)c2ccccc2N1	14%	12%						
O=C1CN(C(=O)CCCl)c2ccccc2N1	12%	26%						
CC(C)COC(=O)N1CC(=O)Nc2ccccc21	20%	46%				> 10 µM	262 µM	
CC(C)COC(=O)N1c2ccccc2NC(=O)[C@@H]1C	37%	64%	13%	64 µM	5	1.58 µM	117 µM	74
CCC(=O)N1CC(=O)Nc2ccccc21	91%	99%	47%	0.63 µM	2	0.0031 µM	98.6 µM	31800
C[C@H]1CNc2ccccc2N1C(=O)CCl	8%	8%						
Cc1nc2ccccc2nc1O	3%	1%						
Oc1nc2ccccc2nc1O	8%	1%						
CC(C)COC(=O)N1c2ccccc2NC(=O)[C@@H]1CC(C)C	22%	51%	20%	67 µM	3			
CC(=O)N1CC(=O)Nc2ccccc21	7%	56%						
C[C@H]1C(=O)Nc2ccccc2N1C(=O)CCCl	15%	28%						
